Measured values as given in patent publication US9289430B2, “Compounds and methods for inhibiting phosphate transport” (Ardelyx, Inc., priority 2010, dated 2016).

What was measured:
human NaP2b (SLC34A2) = biological target: T1, human NaP2b (SLC34A2) (Homo sapiens, UniProt O95436); experiment: NaP2b-mediated Pi transport: 33P phosphate uptake into transfected HEK293 cells; assay type: cell-based; conditions: human protein with threonine inserted after residue 37 and N39D, 100 uM KH2PO4, read-out: pIC50 range for human Nap2b (converted)
T1 construct: host or cells: HEK293
T1 sequence (O95436 1-690): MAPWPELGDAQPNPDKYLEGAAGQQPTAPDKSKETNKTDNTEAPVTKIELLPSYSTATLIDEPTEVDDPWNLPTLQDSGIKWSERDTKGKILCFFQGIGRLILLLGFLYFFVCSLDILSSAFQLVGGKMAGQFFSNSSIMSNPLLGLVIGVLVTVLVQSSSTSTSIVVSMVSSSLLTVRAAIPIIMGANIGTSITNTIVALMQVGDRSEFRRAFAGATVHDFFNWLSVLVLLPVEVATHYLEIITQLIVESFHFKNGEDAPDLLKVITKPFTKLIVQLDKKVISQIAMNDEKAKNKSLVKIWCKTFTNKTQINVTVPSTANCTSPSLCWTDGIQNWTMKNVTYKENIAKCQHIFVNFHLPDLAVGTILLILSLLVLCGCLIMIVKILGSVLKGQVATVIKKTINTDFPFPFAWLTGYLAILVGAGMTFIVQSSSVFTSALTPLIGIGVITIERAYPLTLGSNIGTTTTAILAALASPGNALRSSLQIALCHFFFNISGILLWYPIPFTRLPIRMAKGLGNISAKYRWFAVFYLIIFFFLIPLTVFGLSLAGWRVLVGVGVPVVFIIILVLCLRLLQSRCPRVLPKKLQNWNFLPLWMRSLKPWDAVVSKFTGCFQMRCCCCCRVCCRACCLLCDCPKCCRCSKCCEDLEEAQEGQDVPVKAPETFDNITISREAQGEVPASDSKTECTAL
Outline: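 Transiently transfected HEK293 cells, human clone carrying Thr insertion after residue 37 and N39D; PiT transport silenced pharmacologically. ^33P-phosphate uptake in sodium buffer (100 uM KH2PO4, pH 7.4) versus choline buffer, 3-30 min at room temperature, twelve concentrations 0.1 nM–30 uM in duplicate; scintillation counting, pIC50 derived.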

rat NaP2b (SLC34A2) = biological target: T2, rat NaP2b (SLC34A2) (Rattus norvegicus, UniProt Q9JJ09); experiment: as above; assay type: cell-based; conditions: 100 uM KH2PO4, PiT-silencing agent, read-out: pIC50 range for rat Nap2b (converted)
T2 construct: host or cells: HEK293
T2 sequence (Q9JJ09 1-695): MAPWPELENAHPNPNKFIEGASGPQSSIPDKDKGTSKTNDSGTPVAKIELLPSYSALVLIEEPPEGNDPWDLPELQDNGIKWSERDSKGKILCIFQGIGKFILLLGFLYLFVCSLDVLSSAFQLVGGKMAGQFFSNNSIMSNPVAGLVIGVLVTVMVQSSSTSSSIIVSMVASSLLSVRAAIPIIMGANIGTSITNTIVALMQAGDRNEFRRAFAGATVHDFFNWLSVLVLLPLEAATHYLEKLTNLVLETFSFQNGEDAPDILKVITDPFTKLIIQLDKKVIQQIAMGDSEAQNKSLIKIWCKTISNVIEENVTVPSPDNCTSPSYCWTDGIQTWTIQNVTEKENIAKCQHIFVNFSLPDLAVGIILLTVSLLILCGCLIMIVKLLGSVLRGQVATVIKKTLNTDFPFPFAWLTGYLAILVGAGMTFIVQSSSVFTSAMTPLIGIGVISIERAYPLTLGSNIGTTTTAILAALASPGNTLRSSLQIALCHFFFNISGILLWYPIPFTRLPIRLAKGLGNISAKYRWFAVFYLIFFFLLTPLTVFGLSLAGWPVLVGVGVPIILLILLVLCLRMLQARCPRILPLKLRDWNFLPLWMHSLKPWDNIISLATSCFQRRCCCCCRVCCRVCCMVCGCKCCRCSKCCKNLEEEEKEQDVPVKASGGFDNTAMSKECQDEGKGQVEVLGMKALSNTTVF

[1] = system: Uptake of Phosphorus from the Intestine; experiment: In vivo co-dosing in chow, urinary P output relative to P consumed; set-up: species or system Sprague-Dawley rats; conditions: rats, compound in chow, nominal 100 mg/kg/day (mean actual 104-105 mg/kg/day), mean of 24-96 h, vs control
Excerpt: Male, 7-week-old Sprague-Dawley rats (Charles-River laboratories international, Hollister, Calif.) were allowed to acclimate for a minimum of 3 days. The experiment was initiated by switching animals to a synthetic diet (0.6% phosphorus and 0.6% calcium, Harlan Teklad TD.84122) for four days. After this time, the animals were placed into metabolic cages for daily monitoring of food and water consumption, as well as urine and fecal collections. Test compounds were incorporated into the powdered diet listed above containing 3% chocolate flavoring (w/w, BioSery #7345) at 1.3 mg test compound per gram of diet to achieve an average daily nominal dose of 100 mg/kg/day. The actual dose received by each animal was later determined by measuring prepared diet consumption and body weight. Urine samples were collected in three daily periods from 24-48, 48-72, and 72-96 hours of drug dosing. […] Phosphorous levels in the urine were determined by anion exchange chromatography using a Dionex ICS-3000 ion chromatography system. […] Elution of urine phosphate ions was monitored via conductivity detector and reported as ppm relative to a standard ion solution containing phosphate. Daily urinary P output relative to the P consumed in the prepared diet for each animal was calculated. […] The differences between the means of control and treated groups were evaluated by t tests. […]

[2] = Stability in simulated gastric and intestinal fluid; assay type: in vitro ADME; conditions: 6 hr, 1-20 μM
Experimental: Test compounds were incubated at 1-20 μM in simulated gastric fluid (SGF; standard USP solution with 3 mg/mL pepsin) or simulated intestinal fluid (SIF; standard USP solution with 3 mg/mL pancreatin) for 3 hr or 6 hr. HPLC-UV or HPLC-MS were used to determine test compound levels using peak area %. Results (Table 5) were reported as the percentage of test compound remaining after incubation in a given condition relative to test compound present at t=0 in the same condition.

[3] = Fecal recovery of orally administered compounds; assay type: in vivo, Sprague-Dawley rats; conditions: rats, oral gavage, nominal 10 mg/kg (actual 7.6-11 mg/kg), feces 0-48 hr after dosing
Experimental: Quantitative determination of test compound level in feces after oral gavage was performed using the same set of animals used to determine test compound concentration in plasma (Example 30). The animals were kept in metabolic cages and feces were collected from the time of dosing until 48 hr after dosing. Upon collection, feces was dried by lyophilization and ground to a visually homogenous powder. Duplicate samples of ground feces from each individual animal were weighed out and extracted using organic solvent. Extracted samples were then diluted into mobile phase and test compound levels were quantitatively determined by LC-MS/MS analysis as described in “Example 30” except that the standard curve was prepared in a feces matrix. Extraction conditions were not optimized for individual compounds, and thus may represent a minimal level of recovery.

Structure (SMILES): CN(CCOCCOCCOCCC(=O)O)C(=O)c1cccc(C(=O)Nc2ccc(N3CCCCC3)cc2C(=O)Nc2ccn(-c3cccc(C(F)(F)F)c3)n2)c1 [Example 15, 2-Methyl-1-oxo-1-(3-((4-(piperidin-1-yl)-2-((1-(3-(trifluoromethyl)phenyl)-1H-pyrazol-3-yl)carbamoyl)phenyl)carbamoyl)phenyl)-5,8,11-trioxa-2-azatetradecan-14-oic acid]
- IC50 (human NaP2b (SLC34A2)): < 1000 nM
- IC50 (rat NaP2b (SLC34A2)): 1000 to 7940 nM
- Mean % inhibition Urine Pout/P consumed [1]: 9%
- % remaining, SGF ([2]; simulated gastric fluid with 3 mg/mL pepsin): 100%
- % remaining, SIF ([2]; simulated intestinal fluid with 3 mg/mL pancreatin): 97%
- % recovered in feces [3]: 17%
